Columns and labels:
[1] = system: MDA-MB-468 cells; assay: Cellular proliferation/cytotoxicity assay (Alamar Blue), MDA-MB-468; assay type: cell-based; details: Homo sapiens; MDA-MB-468, 48 hours, Alamar Blue (Resazurin); read-out: Anti-proliferative/cytotoxic activity: IC50 MDA468
Description: (§1) The anti-proliferative activity of the compounds as described herein, is evaluated using MCF7 and MDA-MB-468 (ATCC HTB-22 and HTB-132) cell lines and the Alamar Blue (Resazurin) cell viability assay (O'Brien et al. Eur J Biochem 267, 5421-5426, 2000). Resazurin is reduced to the fluorescent rescrufin by cellular dehydrogenase activity, correlating with viable, proliferating cells. Test compounds are dissolved as 10 mM solutions in DMSO and subsequently diluted. MCF7 or […] cells were seeded into 96 well flat bottom plates at a density of 10000 cells/well (MCF7) or 5000 cells/well (MDA-MB-468) in a volume of 200 μl/well. 24 hours after seeding, 1 μl each of the compound dilutions are added into each well of the 96 well plates. Each compound dilution is tested as at least as duplicates. Wells containing untreated control cells were filled with 200 μl DMEM containing 0.5% v:v DMSO. The cells are then incubated with the substances for 48 hours at 37° C. in a humidified atmosphere containing 5% carbon dioxide. To determine cell viability, 20 μl of a Resazurin solution (Sigma; 90 mg/l) are added. After 4 hours incubation at 37° C. the fluorescence is measured at an extinction of 544 nm and an emission of 590 nm (Wallac Victor2; Perkin Elmer, USA). For the calculation of the cell viability the emission value from untreated cells is set as 100% viability and the emission rates of treated cells are set in relation to the values of untreated cells. Viabilities are expressed as % values. The corresponding IC50 values of the compounds for cytotoxic activity are determined from the concentration-effect curves by means of non-linear regression. The analysis of the data is performed using a biostatistical program (GraphPad Prism, USA).

[2] = system: MCF7 cells; assay: Cellular proliferation/cytotoxicity assay (Alamar Blue), MCF7; assay type: cell-based; details: Homo sapiens; MCF7, 48 hours, Alamar Blue (Resazurin); read-out: Anti-proliferative/cytotoxic activity: IC50 MCF7
Description: as §1

[3] = target: T1, Akt1 (full-length Akt1, inactive) (Homo sapiens, UniProt P31749); assay: Biochemical Akt1 (inactive) assay (full-length Akt1), IMAP, PDK1-dependent activation; details: activation by PDK1 with PIP3 vesicles, 50 μM ATP, 60 min. at room temperature; read-out: Inhibition of Akt1 activation (full-length Akt1, inactive): IC50
T1 construct: recombinant full-length human Akt1 a containing N-terminal His6 tag; His6 (N); purchased Upstate, UK #14-279; host or cells: baculovirus infected Sf21 insect cells
T1 sequence (P31749 whole entry): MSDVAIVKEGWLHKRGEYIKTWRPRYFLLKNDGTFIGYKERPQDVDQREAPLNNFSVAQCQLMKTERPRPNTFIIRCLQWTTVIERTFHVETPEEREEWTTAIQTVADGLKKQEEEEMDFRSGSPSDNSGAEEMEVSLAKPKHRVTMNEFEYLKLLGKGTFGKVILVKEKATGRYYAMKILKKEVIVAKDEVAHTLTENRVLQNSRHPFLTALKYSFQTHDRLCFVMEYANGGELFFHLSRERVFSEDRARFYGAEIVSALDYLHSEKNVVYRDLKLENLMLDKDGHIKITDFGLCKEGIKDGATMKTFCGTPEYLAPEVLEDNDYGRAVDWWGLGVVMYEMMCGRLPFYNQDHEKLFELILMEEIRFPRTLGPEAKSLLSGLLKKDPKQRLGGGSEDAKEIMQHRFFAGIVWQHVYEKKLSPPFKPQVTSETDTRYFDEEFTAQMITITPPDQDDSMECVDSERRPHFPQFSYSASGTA
Description: The enzyme is purified using Ni2+/NTA-agarose (Upstate, UK; #14-279).
The enzyme is purified using Ni2+/NTA-agarose.
PDK1-dependent activation and subsequent enzymatic activity of Akt1: Activity of purified human Akt1 is routinely measured in an assay in which the enzyme is first activated by PDK1 in the presence of phosphatidylinositol-3,4,5-triphosphate (PIP3). Once activated, Akt1-dependent phosphorylation of a fluorescence labelled peptide substrate is measured by fluorescence polarisation using the IMAP technology (Molecular Devices).
The phospholipids are prepared as follows: 5 mg DOPC/DOPS are solved in 200 μl 10 mM Tris (pH 7.4) and 300 μg PIP3 are resuspended in 950 μl 10 mM Tris (pH 7.4) by pipetting. 950 μl solved PIP3 are mixed with 50 μl solved DOPC/DOPS and incubated for 2 h at a temperature below 20° C. Then the mixture is subjected to sonification for 30 min. at max. power until a translucent phopholipid vesicle preparation is obtained. Aliquots of the vesicle suspension are frozen at −80° C. until needed, likewise the solved DOPC/DOPS.
Assays are performed in 384-well plates. Incubations are carried out for 60 min. at room temperature. The reaction buffer mixture contains in a final volume of 25 μl: 10 mM Tris pH 7.4, 10 mM MgCl2. 1 mM DTT, and 0,1 mg/ml BSA. In contrast the activation buffer contains: 50 ng/well Akt1, 20 ng/well PDK1, 1.25 μM peptide substrat, 50 μM ATP, and phospholipid vesicles (1:20). Test compounds are added from stock solutions in DMSO before activation of Akt1 by PDK1. After the incubation the beads (IMAP binding reagent; Molecular Devices; 1:167) are added and the fluorescence polarization is measured (excitation 485 nm, emission 530 nm). The analysis of the data is performed using a biostatistical program.

[4] = target: T2, Akt1 (full-length Akt1, active) (Homo sapiens, UniProt P31749); assay: Biochemical Akt1 (active) assay (full-length Akt1), flashplate, Crosstide; details: Crosstide substrate, 100 nM ATP, 60 minutes at 30° C.; read-out: Akt1 inhibition (full-length Akt1, active): IC50
T2 construct: recombinant full-length human Akt1, containing N-terminal His6 tag; His6 (N); GST (alternative statement of the assay paragraph) (N); purchased Upstate, UK #14-276; host or cells: baculovirus infected Sf21 insect cells
T2 sequence (P31749 whole entry): as above
Excerpt: For the biochemical Akt1 assay recombinant full-length human Akt1, containing N-terminal His6 tag was cloned and expressed in baculovirus infected Sf21 insect cells. Akt1 is activated with GST-MAPKAP-K2 and PDK1, and repurified on Ni2+/NTA-agrose and glutathioneagarose (Upstate, UK; #14-276).
In order to study the inhibition of Akt1 (full-length version) according to the invention, a flashplate-based assay has been developed.
The full-length Akt1 assay is a biochemical assay using Akt1 N-terminally fused to GST and co-expressed with PDK1 in insect cells. The Akt1 assay is run in 96 well plates by incubating 500 ng/well GST-Akt1, 1 μM Crosstide (N-terminally biotinylated synthetic peptide (KGSGSGRPRTSSFAEG) Upstate, #12-385) as substrate, 10 μl of test compound (test compounds were dissolved as 10 mM solutions in dimethylsulfoxide (DMSO) and subsequently diluted) and 100 nM ATP (including ^33P-ATP) in 100 μl of reaction buffer (50 mM HEPES, pH7.5; 3 mM MgCl2; 3 mM MnCl2; 3 μM Na-Orthovanadat; 1 mM DTT; 1 μg/ml PEG8000) for 60 minutes at 30° C. in 96 well microtiter plates. The reactions are terminated by adding 100 μl stopping buffer (5M NaCl, 35 mM EDTA pH 8,0) for 5 minutes. 190 μl of the reaction mixture are transferred into streptavidin-coated Flashplates (Perkin Elmer, #SMP-103) and incubated for further 30 minutes at room temperature. The plates are washed 3 times by using washing buffer (0.9% NaCl). Relying on the incorporation of ^33P into the peptide substrate crosstide, the detection is based on the specific binding of the biotinylated peptide to the streptavidin-coated surface of scintillator-coated flash plates (NEN, USA; #SMP-103). This phosphorylation is measured by counting the plate for 60 sec. using a plate reader (Wallac Microbeta; Perkin Elmer, USA). The analysis of the data is performed using a biostatistical program (GraphPad Prism, USA).

[5] = target: T3, GST-ΔPH-Akt1 (Homo sapiens, UniProt P31749); assay: Biochemical ΔPH Akt1 assay (flashplate, 33P-ATP, histone 2B); details: GST-ΔPH-Akt1, histone 2B substrate, 100 nM ATP, 80 minutes at 30° C.; read-out: Akt inhibition: IC50 (inhibition of deltaPHAkt1)
T3 construct: named GST-deltaPH-Akt1; 107480aa; cloned in the pAcG1 vector; made in house; host or cells: SF9 insect cells (pAcG1 vector), co-expressed with PDK1
T3 sequence (P31749 107-480 limits assumed, stated change not applied): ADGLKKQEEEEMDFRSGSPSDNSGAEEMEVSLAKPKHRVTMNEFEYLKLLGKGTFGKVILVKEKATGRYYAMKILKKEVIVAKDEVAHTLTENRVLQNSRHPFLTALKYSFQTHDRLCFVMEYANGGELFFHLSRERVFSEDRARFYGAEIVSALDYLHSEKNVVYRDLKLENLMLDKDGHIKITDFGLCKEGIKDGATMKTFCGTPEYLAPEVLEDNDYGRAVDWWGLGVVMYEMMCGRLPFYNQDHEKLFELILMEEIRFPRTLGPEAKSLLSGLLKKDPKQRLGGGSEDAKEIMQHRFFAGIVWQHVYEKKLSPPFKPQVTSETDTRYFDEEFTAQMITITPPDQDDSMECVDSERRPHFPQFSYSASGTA
Excerpt: For the biochemical assay ΔPHAkt1 was used devoid of its PH domain as a GST fusion protein (named GST-deltaPH-Akt1; 107480aa; cloned in the pAcG1 vector (BD Biosciences Pharmingen)), co-expressed with PDK1 in SF9 insect cells. The protein was purified using glutathion-affinity chromatography by standard protocols.
In order to study the inhibition of Akt according to the invention, a flashplate-based assay has been developed.
The Akt1 assay is a biochemical assay using Akt1 devoid of its PH domain and co-expressed with PDK1 in insect cells. The GST-ΔPH-Akt1 assay is run in 96 well plates by incubating 100 ng/well GST-ΔPH-Akt1, 100 ng/well histone 2B (Roche, #223514) as substrate, 10 μl of compound of invention (test compounds were dissolved as 10 mM solutions in dimethylsulfoxide (DMSO) and subsequently diluted) and 100 nM ATP (including ^33P-ATP) in 100 μl of reaction buffer ([…], pH7.5; 3 mM MgCl2; 3 mM MnCl2; 3 μM Na-Orthovanadat; 1 mM DTT; 1 μg/ml PEG8000) for 80 minutes at 30° C. The reactions are terminated by adding 100 μl stopping buffer (2% H3PO4 for 5 minutes) and are washed 3 times by using washing buffer (0.9% NaCl). Relying on the incorporation of ^33P into the protein substrate histone 2B, the detection is based on the adhesion of the phosphorylated protein to the surface of scintillator-coated flash plates (NEN, USA; #SMP-200). This phosphorylation is measured by counting the plate for 60 sec. using a plate reader (Wallac Microbeta; Perkin Elmer, USA). The analysis of the data is performed using a biostatistical program (GraphPad Prism, USA).

Row | Compound | melting point | IC50 [1] | IC50 [2] | IC50 [3] | IC50 [4] | IC50 [5]
1 | N=C(N)c1cccc(C(=O)Nc2ccc(Nc3cc(-c4cccc5c4oc4ccccc45)ncn3)cc2)c1 [Compound 45, 3-Carbamimidoyl-N-[4-(6-dibenzofuran-4-yl-pyrimidin-4-ylamino)-phenyl]-benzamide] | 300 to 306 °C | ≤ 6.05 µM | ≤ 16.6 µM |  |  | 
2 | N=C(N)c1ccc(C(=O)Nc2ccc(Nc3cc(-c4cccc5c4oc4ccccc45)ncn3)cc2)cc1 [Compound 47, 4-Carbamimidoyl-N-[4-(6-dibenzofuran-4-yl-pyrimidin-4-ylamino)-phenyl]-benzamide] |  | ≤ 6.05 µM | ≤ 16.6 µM |  |  | 
3 | NCc1ccc(C(=O)Nc2ccc(Nc3cc(-c4cccc5c4oc4ccccc45)ncn3)cc2)cc1.O=C(O)C(F)(F)F [Compound 49, 4-Aminomethyl-N-[4-(6-dibenzofuran-4-yl-pyrimidin-4-ylamino)-phenyl]-benzamide trifluoroacetate] | 155 to 165 °C | ≤ 6.05 µM | ≤ 16.6 µM | ≤ 4.4 µM | ≤ 1.75 µM | 
4 | O=C(Nc1ccc(Nc2cc(-c3cccc4c3oc3ccccc34)ncn2)cc1)c1ccc(C2CCCNC2)cc1.O=C(O)C(F)(F)F (centres unmarked) [Compound 52, N-[4-(6-Dibenzofuran-4-yl-pyrimidin-4-ylamino)-phenyl]-4-piperidin-3-yl-benzamide trifluoroacetate] | 140 to 147 °C | ≤ 6.05 µM | ≤ 16.6 µM |  |  | 
5 | NCc1cccc(C(=O)Nc2ccc(Nc3cc(-c4cccc5c4oc4ccccc45)ncn3)cc2)c1.O=C(O)C(F)(F)F [Compound 54, 3-Aminomethyl-N-[4-(6-dibenzofuran-4-yl-pyrimidin-4-ylamino)-phenyl]-benzamide trifluoroacetate] | 238 to 240 °C | ≤ 6.05 µM | ≤ 16.6 µM |  |  | 
6 | NCc1ccc(C(=O)Nc2cccc(Nc3cc(-c4cccc5c4oc4ccccc45)ncn3)c2)cc1.O=C(O)C(F)(F)F [Compound 57, 4-Aminomethyl-N-[3-(6-dibenzofuran-4-yl-pyrimidin-4-ylamino)-phenyl]-benzamid trifluoroacetate] | 114 °C |  |  | ≤ 4.4 µM | ≤ 1.75 µM | ≤ 5 µM
7 | CNCc1ccc(C(=O)Nc2ccc(Nc3cc(-c4cccc5c4oc4ccccc45)ncn3)cc2)cc1.O=C(O)C(F)(F)F [Compound 63, N-[4-(6-Dibenzofuran-4-yl-pyrimidin-4-ylamino)-phenyl]-4-methylaminomethyl-benzamide trifluoroacetate] | 130 to 140 °C | ≤ 6.05 µM | ≤ 16.6 µM |  |  | 
8 | NCc1cccc(C(=O)Nc2ccc(Nc3cc(-c4cccc5c4oc4ccccc45)ncn3)cc2)n1 [Compound 73, 6-Aminomethyl-pyridin-2-carbonsäure-[4-(6-dibenzofuran-4-yl-pyrimidin-4-ylamino)-phenyl]-amide] | 183 to 186 °C |  |  |  | ≤ 1.75 µM | 
9 | O=C(Nc1ccc(Nc2cc(-c3cccc4c3oc3ccccc34)ncn2)cc1)c1ccc2c(c1)CCNC2.O=C(O)C(F)(F)F [Compound 78, 1,2,3,4-Tetrahydro-isoquinoline-6-carboxylic acid [4-(6-dibenzofuran-4-yl-pyrimidin-4-ylamino)-phenyl]-amide trifluoroacetate] | 146 °C | ≤ 6.05 µM | ≤ 16.6 µM |  |  | ≤ 5 µM
